# Measurements reported in patent US8217000B2, “Method for elevating prolactin in mammals” (Cara Therapeutics, Inc., priority 2006, dated 2012).
# Counter-ions that a name gives are not always drawn. Non-standard residues stand in square brackets, D forms with d. Residues, ends and D or L forms follow the SMILES beside them. *: point of attachment. NH(4-picolyl) = c1cc(CN*)ccn1; dNle = CCCC[C@@H](N)C(=O)O
# Test: Plasma pharmacokinetics of CR665 after single IV infusion in human subjects
# Conditions: for half-life / clearance / Vd / AUC(0-t) / AUC(0-inf) / Cmax / MRT / Tmax: human, plasma; for clearance: CL; for AUC(0-t): AUC0-t; for AUC(0-inf): AUC0-∞; for MRT: MRTint; for Tmax: median
# Protocol: This clinical study was conducted as a double blind, placebo controlled, ascending single intravenous (IV) dose, sequential group study. This study was double blind and placebo controlled in order to avoid bias in the collection and evaluation of data during its conduct. […] In each group, subjects received CR665 or placebo. Doses were administered as a single constant rate IV infusion over 1 hour (part A) or 5 minutes (part B) on the morning of Day 1. Doses were administered in an escalating manner following satisfactory review of the safety data and pharmacokinetic data from the lower dose levels. There was a minimum of 6 days between dose escalations to allow sufficient time for an adequate safety review.
# Plasma and urine samples for the analysis of CR665 and N oxide metabolite were prepared by solid phase extraction. The centrifuged eluates were quantified by liquid chromatography with tandem mass spectrometric detection (LC MS/MS). The lower limit of quantification was 1 ng/mL.
# For pharmacokinetic assessments, blood samples (1×3 mL) were taken from the contralateral forearm vein(s) at the following times: Pre-dose, 15 minutes, 30 minutes, 45 minutes, 1 hour (immediately prior to the end of infusion), 1 hour 5 minutes, 1 hour 10 minutes, 1 hour 15 minutes, 1.5, 2, 2.5, 3, 4, 6, 8, 12, 16, 24, 36 and 48 hours after the start of the infusion). An indwelling cannula (Venflon®; BOC Ohmeda AB, Sweden) was used for all blood collection pre-dose and up to at least 12 hours after the start of the infusion. Otherwise, samples were collected using venipuncture. Blood samples were collected into pre-chilled 3 mL K3EDTA Vacutainer™ tubes (Becton Dickinson UK, Ltd., Oxford) and, after mixing, were placed in a cool box containing crushed ice/water. The samples were centrifuged, within 30 minutes of collection, at 1500 g for 10 minutes at approximately 4° C. For each sample, the separated plasma was transferred into two 5 mL suitably labeled polypropylene tubes, and stored immediately at approximately −20° C. Plasma samples were analyzed for CR665 using liquid chromatography with tandem mass spectrometric detection.
# The pharmacokinetic analysis was conducted using WinNonlin Enterprise Version 4.0.1.
# Pharmacokinetic parameters were determined from the plasma and urine, concentrations of CR665 and the N-oxide metabolite using non compartmental procedures.
# Dose and body weight normalized values (norm) were determined for AUC0-t, AUC0-∞, Cinf and Cmax. Body weight normalized values [norm] were determined for Vz, Vss, CL and CLR.
# The pharmacokinetic analysis was conducted using model independent methods as implemented in WinNonlin software, based on plasma concentrations of CR665 from those subjects who have received CR665 and have evaluable plasma concentration-time profiles.
# The following plasma pharmacokinetic parameters were determined for CR665: • Cmax Maximum plasma concentration • tmax Time of maximum plasma concentration • t1/2z Terminal half-life=ln(2)/λz • AUC0-1 Area under the plasma concentration-time curve from time zero to time t (time of last quantifiable plasma concentration) • AUCinf Area under the plasma concentration-time curve from time zero to infinity calculated as [AUC0-t+(Clast/λz)] where Clast is the estimated concentration at the last quantifiable concentration curve. • λz Terminal-phase rate constant, also known as Kel • CL Total body clearance=Dose/AUCinf • Vz Volume of distribution based on terminal phase calculated as Vz/F=Dose/λz*AUCinf
# Individual elapsed sampling times were used in the pharmacokinetic analysis. Cmax and tmax were obtained directly from the experimental observations. For the purpose of calculating AUC0-t, when two consecutive plasma concentrations below the lower limit of quantification (LLOQ) were encountered after tmax, all subsequent values were excluded from the analysis.
# [1] = female, iv, 0.06 mg/kg, females, 5-minute IV infusion, geometric mean
# [2] = female, iv, 0.24 mg/kg, females, 1-hour IV infusion, geometric mean
# [3] = females, 0.24 mg/kg dose level as printed, Part B text
# [4] = male, iv, 0.015 mg/kg, males, 1 hour IV infusion, geometric mean
# [5] = male, iv, 0.03 mg/kg, males, 5-minute IV infusion, geometric mean
# [6] = male, iv, 0.03 mg/kg, males, 1 hour IV infusion, geometric mean
smiles,measurement,setting,value
"CCCC[C@@H](NC(=O)[C@@H](Cc1ccccc1)NC(=O)[C@H](N)Cc1ccccc1)C(=O)N[C@H](CCCNC(=N)N)C(=O)NCc1ccncc1 [CR665, D-phenylalanyl-D-phenylalanyl-D-norleucyl-N-(4-pyridinylmethyl)-D-argininamide, acetate salt] (H-[dF][dF][dNle][dR]-{NH(4-picolyl)})",half-life,"both, intravenous, 0.24 mg/kg, Mean terminal elimination half-life, male and female subjects, 1-hour infusion",72 to 84 min
same,clearance,"female, intravenous, 0.06 mg/kg, geometric least squares mean, females, 5-minute infusion",544 mL/min
same,half-life,"female, intravenous, 0.06 mg/kg, Mean terminal elimination half life, females, 5-minute infusion",~48 min
same,Vd,"female, intravenous, 0.06 mg/kg, Vss, geometric least squares mean, females, 5-minute infusion",14.1 L
same,Vd,"female, intravenous, 0.06 mg/kg, Vz, geometric least squares mean, females, 5-minute infusion",45.7 L
same,half-life,"female, intravenous, 0.06 mg/kg, t1/2, geometric least squares mean, females, 5-minute infusion",56.8 min
same,clearance,"female, intravenous, 0.24 mg/kg, geometric least squares mean, females, 1-hour infusion",573 mL/min
same,half-life,"female, intravenous, 0.24 mg/kg, Mean terminal elimination half-life, females, 1-hour infusion",72 min
same,Vd,"female, intravenous, 0.24 mg/kg, Vss, geometric least squares mean, females, 1-hour infusion",17 L
same,Vd,"female, intravenous, 0.24 mg/kg, Vz, geometric least squares mean, females, 1-hour infusion",50.2 L
same,half-life,"female, intravenous, 0.24 mg/kg, t1/2, geometric least squares mean, females, 1-hour infusion",63 min
same,AUC(0-t),[1],0.12 µg·h/mL
same,AUC(0-inf),[1],0.122 µg·h/mL
same,clearance,[1],544 mL/min
same,Cmax,[1],0.52 µg/mL
same,MRT,[1],25.1 min
same,Vd,"female, iv, 0.06 mg/kg, Vss, females, 0.06 mg/kg, 5-minute IV infusion, geometric mean",13.7 L
same,Vd,"female, iv, 0.06 mg/kg, Vz, females, 5-minute IV infusion, geometric mean",39.2 L
same,half-life,"female, iv, 0.06 mg/kg, t1/2, females, 5-minute IV infusion, geometric mean",50 min
same,Tmax,"female, iv, 0.06 mg/kg, females, 5-minute IV infusion",5 min
same,AUC(0-t),[2],0.44 µg·h/mL
same,AUC(0-inf),[2],0.442 µg·h/mL
same,clearance,[2],557 mL/min
same,Cmax,[2],0.384 µg/mL
same,MRT,[2],30.9 min
same,Vd,"female, iv, 0.24 mg/kg, Vss, females, 0.24 mg/kg, 1-hour IV infusion, geometric mean",17.2 L
same,Vd,"female, iv, 0.24 mg/kg, Vz, females, 1-hour IV infusion, geometric mean",55.7 L
same,half-life,"female, iv, 0.24 mg/kg, t1/2, females, 1-hour IV infusion, geometric mean",69.6 min
same,Tmax,"female, iv, 0.24 mg/kg, females, 1-hour IV infusion",45 min
same,"AUC0-t (norm), ratio of geometric least squares means 5-minute:1-hour",females,1.04
same,"AUC0-∞ (norm), ratio of geometric least squares means 5-minute:1-hour",females,1.05
same,"CL, ratio of geometric least squares means 5-minute:1-hour",females,0.950
same,"Cmax (norm), ratio of geometric least squares means 5-minute:1-hour",females,5.27
same,"Cmax, fold higher for the 5-minute compared to the 1-hour infusion",females,5.3 fold
same,"MRTint, ratio of geometric least squares means 5-minute:1-hour",females,0.864
same,"Vss, ratio of geometric least squares means 5-minute:1-hour",females,0.832
same,"Vz, ratio of geometric least squares means 5-minute:1-hour",females,0.911
same,"t1/2, ratio of geometric least squares means 5-minute:1-hour",females,0.901
same,Between-subject variability (CV %) for AUC0-∞,[3],8.8%
same,Between-subject variability (CV %) for Cmax,[3],18.8%
same,"MRTint, geometric least squares mean","females, 1-hour infusion",29.9 min
same,"MRTint, geometric least squares mean","females, 5-minute infusion",25.8 min
same,half-life,"intravenous, Apparent elimination half life, individual subjects, males, 0.12 to 0.48 mg/kg, 1 hour infusion",72 to 180 min
same,Vd,"male, intravenous, Apparent volume of distribution at steady state (VSS), males, 0.12 to 0.48 mg/kg dose range",19 to 23 L
same,clearance,"male, intravenous, geometric least squares mean, males, 1-hour infusion, Parts A & B",557 mL/min
same,clearance,"male, intravenous, geometric least squares mean, males, 5-minute infusion, Parts A & B",538 mL/min
same,half-life,"male, intravenous, Mean apparent elimination half life, males, 0.015 to 0.06 mg/kg, 1 hour infusion",~42 min
same,half-life,"male, intravenous, Mean apparent elimination half life, males, 0.03 to 0.09 mg/kg, 5-minute infusion",60 to 78 min
same,half-life,"male, intravenous, Mean apparent elimination half life, males, 0.12 to 0.48 mg/kg, 1 hour infusion",84 to 114 min
same,Vd,"male, intravenous, Vss, geometric least squares mean, males, 1-hour infusion, Parts A & B",20.1 L
same,Vd,"male, intravenous, Vss, geometric least squares mean, males, 5-minute infusion, Parts A & B",18.1 L
same,Vd,"male, intravenous, Vz, geometric least squares mean, males, 1-hour infusion, Parts A & B",59.1 L
same,Vd,"male, intravenous, Vz, geometric least squares mean, males, 5-minute infusion, Parts A & B",61 L
same,half-life,"male, intravenous, t1/2, geometric least squares mean, males, 1-hour infusion, Parts A & B",75 min
same,half-life,"male, intravenous, t1/2, geometric least squares mean, males, 5-minute infusion, Parts A & B",76.8 min
same,AUC(0-t),[4],0.03 µg·h/mL
same,AUC(0-inf),[4],0.0314 µg·h/mL
same,clearance,[4],560 mL/min
same,Cmax,[4],0.0278 µg/mL
same,MRT,[4],30.7 min
same,Vd,"male, iv, 0.015 mg/kg, Vss, males, 0.015 mg/kg, 1 hour IV infusion, geometric mean",17.2 L
same,Vd,"male, iv, 0.015 mg/kg, Vz, males, 1 hour IV infusion, geometric mean",33.5 L
same,half-life,"male, iv, 0.015 mg/kg, t1/2, males, 1 hour IV infusion, geometric mean",41.5 min
same,Tmax,"male, iv, 0.015 mg/kg, males, 1 hour IV infusion",60 min
same,AUC(0-t),[5],0.0659 µg·h/mL
same,AUC(0-t),[6],0.07 µg·h/mL
same,AUC(0-inf),[5],0.0684 µg·h/mL
same,AUC(0-inf),[6],0.0725 µg·h/mL
same,clearance,[5],473 mL/min
same,clearance,[6],538 mL/min
same,Cmax,[5],0.233 µg/mL
same,Cmax,[6],0.0653 µg/mL
same,MRT,[5],36.9 min
same,MRT,[6],30.6 min
same,Vd,"male, iv, 0.03 mg/kg, Vss, males, 0.03 mg/kg, 5-minute IV infusion, geometric mean",17.4 L
same,Vd,"male, iv, 0.03 mg/kg, Vss, males, 0.03 mg/kg, 1 hour IV infusion, geometric mean",16.5 L
same,Vd,"male, iv, 0.03 mg/kg, Vz, males, 5-minute IV infusion, geometric mean",53.6 L
same,Vd,"male, iv, 0.03 mg/kg, Vz, males, 1 hour IV infusion, geometric mean",34.1 L
same,half-life,"male, iv, 0.03 mg/kg, t1/2, males, 5-minute IV infusion, geometric mean",78.6 min
same,half-life,"male, iv, 0.03 mg/kg, t1/2, males, 1 hour IV infusion, geometric mean",43.9 min
same,Tmax,"male, iv, 0.03 mg/kg, males, 5-minute IV infusion",5 min
same,Tmax,"male, iv, 0.03 mg/kg, males, 1 hour IV infusion",60 min
same,AUC(0-t),"male, iv, 0.06 mg/kg, males, 5-minute IV infusion, geometric mean",0.139 µg·h/mL
same,AUC(0-t),"male, iv, 0.06 mg/kg, males, 1 hour IV infusion, geometric mean",0.129 µg·h/mL
